Measurements taken from patent US20240101600A1, “FIBROBLAST GROWTH FACTOR RECEPTOR (FGFR)-TARGETING ANTAGONISTIC SHORT PEPTIDE” (WENZHOU MEDICAL UNIVERSITY, priority 2019, published 2024).
Where no end group is shown, it is not given here.

Columns and labels:
NCI-H460 cells = assay: MTT viability, NCI-H460 cells; assay type: cell-based; conditions: 48 h with bFGF
Protocol: In vitro anti-tumor activity of a short peptide compound P48 Hela229 (1500 cells/100 μl), B16-F10 (1000 cells/100 μl), NCI-H460 (4000 cells/100 μl) and SGC7901 (4000 cells/100 μl) cells were inoculated in 96-well plates. After incubated overnight adherently, the original medium was replaced with a Dulbecco's modified eagle medium (DMEM) containing 0.1% fetal bovine serum (FBS) or a Roswell Park Memorial Institute 1640 (RPMI-1640) medium containing 0.1% FBS, and culture was continued for 24 h. A mixture of P48 and bFGF, or bFGF alone were added into corresponding wells, and incubated for 48 h; an MTT solution (5 mg/mL) prepared by PBS was added to the cells in each well at 37° C., and treated for 4 h. The MTT was removed by aspiration, 150 μL of DMSO was added to each well, shaking was conducted for 10 min, and an optical density (OD) value was quantified with a microplate reader (SpectraMax M2/M2e, Molecular Devices, Sunnyvale, USA) at a wavelength of 490 nm. The percentage of drug growth inhibition rate was calculated by comparing with the bFGF group. […] The experimental procedure was as follows: 10% FBS-containing medium (500 μl) was added to a lower surface of a transwell insertion chamber, the cells together with the drug were inoculated into an upper chamber, and cultured with a serum-free medium (200 μl). […]

FGFR1B = FGFR1B (Homo sapiens, UniProt P11362); assay: SPR detection of interaction with FGFR1B in presence of bFGF; assay type: binding
Protocol: Amino acid sequence of P9 degraded short peptide P48 was analyzed using Amber11 program. An initial structure of the P9 and P48 peptide chains was constructed using a sequence command in a Tleap module of the Amber11 program. Hydrogen atoms were added using the Tleap module of the Amber11 program, a […] TIP3P solvent box was added at a distance of 10 Å from the peptide chain, and counter ions were added to the two systems to keep the system electrically neutral. The system was subjected to 20-ns NPT system simulation to obtain an optimal spatial structure. […] The experimental procedure was as follows: the plasma was centrifuged and the supernatant was removed, and 60 μl of peptide was added to incubate for different lengths of time (P9 was incubated for 5, 10, 15, 20, 25, 30 and 45 min; P48 was incubated for 1, 2, 3, 4, 5, 10 and 12 h), and the incubation was terminated with 200 μl of 5% glacial acetic acid. Solid phase extraction: activation was conducted with 1.5 ml of methanol, an obtained product was washed with 1.5 ml of H2O, 400 μl of a sample was loaded, washed with 1 ml of H2O, and elution was conducted with 2 ml of 30% acetonitrile to collect samples, and the samples were freeze-dried and subjected to liquid chromatography analysis. […] The last 1 ns of trajectory obtained by molecular dynamics simulation of the system was selected to calculate the binding free energy, the molecules of the solvent of water and counter ion were deleted, and conformation was recorded every 10 ps to obtain a total of 101 structures. The binding free energy between FGF2 and FGFR1 were calculated by a molecular mechanics-generalized born surface area (MM-GBSA) method. The binding free energy and energy decomposition of amino acid residues were calculated using an MMPBA.py script provided by the Amber11. […] After bFGF and FGFR1 flew into the sensor chip, P48 (50 μM, 100 μM, 200 μM, 300 μM and 400 μM) was injected into a sensor surface, and the obtained data was analyzed using BIAevaluation software.

FGFR1 [1] = target: FGFR1 (Mus musculus, UniProt P16092); assay: Western blot of FGFR1 signaling pathway in melanoma B16-F10; assay type: cell-based; parameters: endogenous in cells; conditions: bFGF stimulation
Protocol: (§1) Cervical cancer cells Hela229, melanoma B16-F10, lung cancer cells NCI-H460, gastric cancer cells SGC-7901 and MGC-803 were inoculated into 6-well plates, respectively. After growing adherently overnight, the cells were pretreated with P48 for 10 min or with AZD4547/SSR for 2 h, and incubated with bFGF for 15 min or with KGF for 20 min.

FGFR2B = FGFR2B (Homo sapiens, UniProt P21802); assay: SPR detection of interaction with FGFR2B; assay type: binding
FGFR1 [2] = target: FGFR1 (Homo sapiens, UniProt P11362); assay: Western blot of FGFR1 signaling pathway in gastric cancer cells SGC-7901 and MGC-803; assay type: cell-based; parameters: endogenous in cells; host or cells: Hela229; NCI-H460; SGC-7901; MGC-803
Protocol: as §1

[3] = gastric cancer cell lines, bFGF stimulation

Sequence of FGFR1B (P11362 22-822 isoform P11362-19 limits assumed): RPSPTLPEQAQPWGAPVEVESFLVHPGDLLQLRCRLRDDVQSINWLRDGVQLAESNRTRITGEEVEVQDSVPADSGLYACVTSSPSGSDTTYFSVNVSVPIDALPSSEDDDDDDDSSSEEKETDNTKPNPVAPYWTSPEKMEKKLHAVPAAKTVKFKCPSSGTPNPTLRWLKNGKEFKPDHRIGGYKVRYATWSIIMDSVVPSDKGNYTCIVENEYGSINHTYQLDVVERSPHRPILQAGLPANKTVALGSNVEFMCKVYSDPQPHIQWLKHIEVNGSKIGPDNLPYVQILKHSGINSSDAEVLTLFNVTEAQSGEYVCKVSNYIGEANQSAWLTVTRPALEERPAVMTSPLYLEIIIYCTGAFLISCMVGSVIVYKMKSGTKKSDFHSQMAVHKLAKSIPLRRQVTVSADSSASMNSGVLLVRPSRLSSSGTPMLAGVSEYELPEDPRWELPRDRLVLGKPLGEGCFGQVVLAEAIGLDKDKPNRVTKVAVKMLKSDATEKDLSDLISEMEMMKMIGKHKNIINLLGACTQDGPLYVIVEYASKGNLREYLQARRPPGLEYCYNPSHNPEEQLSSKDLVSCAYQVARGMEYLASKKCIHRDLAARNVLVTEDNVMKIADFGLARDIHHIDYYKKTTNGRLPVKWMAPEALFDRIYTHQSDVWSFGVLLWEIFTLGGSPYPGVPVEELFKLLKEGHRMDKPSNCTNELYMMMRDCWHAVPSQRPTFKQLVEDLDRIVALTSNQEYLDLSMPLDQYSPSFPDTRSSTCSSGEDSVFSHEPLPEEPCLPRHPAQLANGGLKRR
Sequence of FGFR1 (Homo sapiens, UniProt P11362) (P11362 22-822): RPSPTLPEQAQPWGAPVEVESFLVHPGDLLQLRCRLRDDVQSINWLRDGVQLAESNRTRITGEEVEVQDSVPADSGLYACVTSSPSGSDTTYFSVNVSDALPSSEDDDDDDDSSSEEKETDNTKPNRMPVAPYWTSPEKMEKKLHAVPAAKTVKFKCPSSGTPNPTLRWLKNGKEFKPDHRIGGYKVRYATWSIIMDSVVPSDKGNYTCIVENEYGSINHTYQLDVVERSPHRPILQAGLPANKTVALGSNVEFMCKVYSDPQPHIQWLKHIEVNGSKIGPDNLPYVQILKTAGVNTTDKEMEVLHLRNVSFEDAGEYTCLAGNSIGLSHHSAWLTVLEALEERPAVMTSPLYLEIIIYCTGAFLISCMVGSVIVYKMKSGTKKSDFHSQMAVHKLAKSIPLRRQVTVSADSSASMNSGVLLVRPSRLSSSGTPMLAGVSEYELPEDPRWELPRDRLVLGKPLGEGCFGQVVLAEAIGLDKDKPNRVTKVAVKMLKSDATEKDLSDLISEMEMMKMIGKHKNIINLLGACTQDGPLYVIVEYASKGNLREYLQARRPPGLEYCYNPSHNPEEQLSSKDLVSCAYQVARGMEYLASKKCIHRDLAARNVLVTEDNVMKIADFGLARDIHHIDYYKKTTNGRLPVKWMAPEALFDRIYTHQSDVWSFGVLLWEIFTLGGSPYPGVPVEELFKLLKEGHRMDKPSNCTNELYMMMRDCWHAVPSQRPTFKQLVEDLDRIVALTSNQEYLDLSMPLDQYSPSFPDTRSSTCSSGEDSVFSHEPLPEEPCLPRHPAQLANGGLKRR
Sequence of FGFR2B (P21802 22-822 isoform P21802-3 limits assumed): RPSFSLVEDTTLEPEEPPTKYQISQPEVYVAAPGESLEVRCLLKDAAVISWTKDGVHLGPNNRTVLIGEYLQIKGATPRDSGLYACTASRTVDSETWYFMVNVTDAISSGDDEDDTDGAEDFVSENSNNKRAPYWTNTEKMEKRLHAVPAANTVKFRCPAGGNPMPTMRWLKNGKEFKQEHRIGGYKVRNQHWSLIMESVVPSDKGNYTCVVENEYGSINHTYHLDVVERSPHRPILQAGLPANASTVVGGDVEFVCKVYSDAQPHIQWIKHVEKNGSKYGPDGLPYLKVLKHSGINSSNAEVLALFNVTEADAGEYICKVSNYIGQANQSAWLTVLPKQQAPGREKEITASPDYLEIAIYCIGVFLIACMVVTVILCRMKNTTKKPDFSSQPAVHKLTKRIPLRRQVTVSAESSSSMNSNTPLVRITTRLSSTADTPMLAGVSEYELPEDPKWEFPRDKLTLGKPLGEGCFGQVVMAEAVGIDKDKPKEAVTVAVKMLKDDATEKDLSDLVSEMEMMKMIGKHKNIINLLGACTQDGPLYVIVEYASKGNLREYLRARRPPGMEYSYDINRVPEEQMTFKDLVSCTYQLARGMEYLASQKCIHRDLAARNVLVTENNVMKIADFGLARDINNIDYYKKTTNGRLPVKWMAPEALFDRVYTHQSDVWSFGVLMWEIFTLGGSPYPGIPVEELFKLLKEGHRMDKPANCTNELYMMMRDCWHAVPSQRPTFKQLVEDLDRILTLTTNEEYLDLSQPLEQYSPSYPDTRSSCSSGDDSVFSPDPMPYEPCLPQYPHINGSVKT
Sequence of FGFR1 (Mus musculus, UniProt P16092) (P16092 22-822): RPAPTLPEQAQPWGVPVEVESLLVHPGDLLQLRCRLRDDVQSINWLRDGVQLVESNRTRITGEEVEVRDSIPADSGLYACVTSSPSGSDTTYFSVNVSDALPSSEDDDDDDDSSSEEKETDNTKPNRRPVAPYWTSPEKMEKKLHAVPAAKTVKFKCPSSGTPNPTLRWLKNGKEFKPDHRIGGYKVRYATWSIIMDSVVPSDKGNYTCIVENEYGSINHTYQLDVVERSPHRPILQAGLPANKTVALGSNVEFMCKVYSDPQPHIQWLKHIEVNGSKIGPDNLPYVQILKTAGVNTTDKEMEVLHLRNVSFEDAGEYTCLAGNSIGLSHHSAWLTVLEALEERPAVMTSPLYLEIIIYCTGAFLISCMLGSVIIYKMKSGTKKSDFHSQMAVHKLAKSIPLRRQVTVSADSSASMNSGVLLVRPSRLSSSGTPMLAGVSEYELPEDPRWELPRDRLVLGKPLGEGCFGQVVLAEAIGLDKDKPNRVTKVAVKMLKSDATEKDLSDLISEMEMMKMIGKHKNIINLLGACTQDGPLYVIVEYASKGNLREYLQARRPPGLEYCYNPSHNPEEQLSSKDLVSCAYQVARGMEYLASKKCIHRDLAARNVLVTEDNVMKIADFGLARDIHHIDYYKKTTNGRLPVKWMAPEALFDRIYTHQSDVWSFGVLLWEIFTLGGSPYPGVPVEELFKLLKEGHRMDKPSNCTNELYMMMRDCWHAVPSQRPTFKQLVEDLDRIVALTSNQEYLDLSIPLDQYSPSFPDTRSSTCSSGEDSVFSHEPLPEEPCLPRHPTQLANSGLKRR

SPPRYPGGGS-NH2 [P48, Ser-Pro-Pro-Arg-Tyr-Pro-Gly-Gly-Gly-Ser-NH2]
inhibition of cancer cell viability (NCI-H460 cells): can significantly inhibit the viability of cancer cells | competitive binding to FGFR1 with bFGF (FGFR1B; P48 50-400 μM): can competitively bind to FGFR1 with basic fibroblast growth factor (bFGF) | concentration dependence of binding force (FGFR1B; P48 50-400 μM): a higher concentration leads to a stronger binding force | binding degree FGFR1 versus FGFR2 and FGFR3 (FGFR1B; comparison of FIG. 1F and FIG. 2): stronger than that with FGFR2 and FGFR3 | inhibition of FGFR1 signaling pathway (FGFR1 [1]): can inhibit the FGFR1 signaling pathway of cervical cancer, melanoma, lung cancer and gastric cancer in a concentration-dependent manner | binding to FGFR2B (FGFR2B): can be bound | effect on KGF stimulation (FGFR1 [2]; SGC-7901, KGF 20 min): has no effect | effect on aFGF stimulation (FGFR1 [2]; SGC-7901, aFGF 15 min): has no effect | inhibition of FGFR1 activation under bFGF stimulation (FGFR1 [2]; SGC-7901, bFGF 15 min): can only inhibit the activation of FGFR1 induced by bFGF | inhibition of FGFR1 signaling pathway (FGFR1 [2]; gastric cancer (SGC-7901, MGC-803), bFGF stimulation): can inhibit the FGFR1 signaling pathway of cervical cancer, melanoma, lung cancer and gastric cancer in a concentration-dependent manner | activity on FGFR1 signaling compared with AZD4547 (FGFR1 [2]; [3]): weaker than that of AZD4547 | inhibitory effect on FGFR1 signaling compared with SSR (FGFR1 [2]; [3]): comparable to that of the SSR
